Assay results reported in patent US7230028B2, “Dimeric compounds and their use as anti-viral agents” (priority 2001, dated 2007).
Converted amounts (≈) assume the structure as drawn. “And” between values parts separate entries of the source, which are not always exact repeats. Equal values may be shown once. Where a name gives a salt, the structure may show the parent alone. Read-outs that look alike come from different tables or passages of the source.

What was measured:
[1] = test system: A/New Caledonia/20/99 BVLV008 (H1N1); experiment: Plaque reduction assay (PRA) in MDCK cells; assay type: cell-based; settings: Influenza A virus
[2] = test system: A/Panama/2007/99 BVLV008 (H3N2); experiment: Plaque reduction assay (PRA) in MDCK cells; assay type: cell-based; settings: Influenza A virus
[3] = test system: A/Victoria/3/75 BVLV017 (H3N2); experiment: Plaque reduction assay (PRA) in MDCK cells; assay type: cell-based; settings: for EC50: Influenza A virus
[4] = test system: B/Hong Kong/5/72 BVLV012; experiment: Plaque reduction assay (PRA) in MDCK cells; assay type: cell-based, influenza B; settings: for EC50: Influenza B virus, MDCK, read-out: EC50 PRA B/HongK
Description: (§1) Madin Darby Canine Kidney (MDCK) cells are seeded into six well tissue culture plates and grown to confluency via standard methods. Influenza viruses are diluted in a minimal volume of phosphate buffered saline supplemented with 0.2% bovine serum albumin to yield an estimated titre of 50–100 plaque forming units (pfu) per well. After adsorption to the MDCK cells for one hour at 37° C. in a 5% CO2 atmosphere the viral inocula is aspirated and replaced with viral growth media (minimal Eagle's media supplemented with BSA, trypsin and insulin/transferrin/selenium at optimal concentrations) containing sufficient agar or agarose (generally 1–2%) to cause the media to gel at room temperature and at 37° C. in a 5% CO2 atmosphere until plaques develop (generally 2–4 days). Plaques can be visualised with a suitable stain (e.g. 0.4% crystal violet in formal saline) before counting.

[5] = test system: B/Yamanashi/166/98 BVLV007; experiment: Plaque reduction assay (PRA) in MDCK cells; assay type: cell-based; settings: for EC50: Influenza B virus, MDCK
[6] = test system: Influenza A/Sydney/5/97; experiment: Cytopathic effect (CPE) assay, inhibition of influenza virus replication in MDCK cells; assay type: cell-based
[7] = Rat lung retention assay (intra-tracheal dosing); assay type: in vivo; settings: for Mean (cmpd) / (cmpd): 0.1 mg/kg intra-tracheal; for (cmpd) / PCT AU01/01128 compound 3 ng/g: individual animal; for (cmpd): bis(trifluoroacetic acid salt)
Description: Rodents are anaesthetised and dosed with compound of interest by the intra-tracheal route at a dose volume of 0.8 ml/kg. The rodent is then held in the vertical position until full recovery is achieved. […] Any analytical method suitable for detection of this type of compound may be used. The time at which levels of compound fall below the sensitivity of the analytical techniques identified will determine the residency time of the compound in lung tissue.
Please note that all experiments included a co-dosed internal standard, namely compound 3 of International Patent Publication No. WO 02/20514, to permit comparison. The data are expressed as a ratio with respect to this compound, the structure of which is shown below.

[8] = test system: B/Victoria/1/67; experiment: Plaque reduction assay (PRA) in MDCK cells; assay type: cell-based, influenza B; settings: bis(trifluoroacetic acid salt)
[9] = test system: Influenza B/Harbin/7/95; experiment: Cytopathic effect (CPE) assay, inhibition of influenza virus replication in MDCK cells; assay type: cell-based; settings: up to 72 hours, MTT
[10] = test system: A/Sydney/5/97 BVLV015 (H3N2); experiment: Plaque reduction assay (PRA) in MDCK cells; assay type: cell-based, influenza A H3N2; settings: A/Sydney/5/97 (H3N2)
Description: as §1

[11] = test system: A/WSN/33 BVLV09 (H1N1); experiment: Plaque reduction assay (PRA) in MDCK cells; assay type: cell-based, influenza A H1N1; settings: Influenza A virus, MDCK, A/WSN/33 (H1N1)
Description: as §1

[12] = rat lung, co-dosed internal standard, 48 hrs
[13] = H1N1, MDCK, read-out: EC50 PRA A/New, plaque reduction, A/New Caledonia/20/99 (H1N1)
[14] = rat, in vivo, 0.1 mg/kg, Mean (cmpd) ng/g
[15] = read-out: EC50 PRA B/Yam, plaque reduction, B/Yamanashi/166/98

Work on `CCOC(=O)C1=C[C@@H](OC(CC)CC)[C@H](NC(C)=O)[C@@H](N)C1` [Oseltamivir] yielded an EC50 ([1]; MDCK, plaque reduction, A/New Caledonia/20/99 (H1N1), read-out: EC50 PRA A/New) of 0.23 ng/mL (≈ 0.000736 µM), an EC50 ([2]; MDCK, plaque reduction, A/Panama/2007/99 (H3N2), read-out: EC50 PRA A/Pan) of 0.3 ng/mL (≈ 0.00096 µM) and an EC50 ([3]; MDCK, plaque reduction, A/Victoria/3/75 (H3N2), read-out: EC50 PRA A/Vic) of 0.00011 µg/mL (≈ 0.000352 µM). It also gave an EC50 [4] of 32 ng/mL (≈ 0.102 µM) and an EC50 ([5]; plaque reduction, B/Yamanashi/166/98, read-out: EC50 PRA B/Yam) of 0.7 ng/mL (≈ 0.00224 µM).

For `CC(=O)N[C@H]1[C@H]([C@H](OC(=O)NCCCCCCCCCCCCNC(=O)O[C@@H]([C@@H]2OC(C(=O)O)=C[C@H](NC(=N)N)[C@H]2NC(C)=O)[C@H](O)CO)[C@H](O)CO)OC(C(=O)O)=C[C@@H]1NC(=N)N.O=C(O)C(F)(F)F.O=C(O)C(F)(F)F` [Example 3, (2R,3R,4S)-3-(acetylamino)-2-{(1R,20R,21R)-20-((2R,3R,4S)-3-(acetylamino)-4-{[amino(imino)methyl]amino}-6-carboxy-3,4-dihydro-2H-pyran-2-yl)-1-[(1R)-1,2-dihydroxyethyl]-21,22-dihydroxy-3,18-dioxo-2,19-dioxa-4,17-diazadocos-1-yl}-4-{[amino(imino)methyl]amino}-3,4-dihydro-2H-pyran-6-carboxylic acid bis(trifluoroacetic acid salt)], the “ID50 A/Sydney/5/97” value ([6]; molar) was 0.087 M, the “ID50 A/Sydney/5/97” value ([6]; up to 72 hours, MTT) was 0.0001, 0.0001 μg/ml and the “Mean (cmpd)” value ([7]; rat lung, 48 hrs) was 1117 ng/g. The “Mean (cmpd)” value ([7]; rat lung, 168 hrs) was 376 ng/g, the “(cmpd)” value ([7]; rat lung, 48 hrs, 0.1 mg/kg) was 591 ng/g and 1845 ng/g and 914 ng/g and the “(cmpd)” value ([7]; rat lung, 168 hrs, 0.1 mg/kg) was 471 ng/g and 546 ng/g and 111 ng/g. The “EC50 PRA B/Vic” value [8] was 0.01 ng/mL, the “EC50 PRA A/Vic” value ([3]; plaque reduction, A/Victoria/3/75 (H3N2)) was 0.0023 ng/mL and the “EC50 PRA B/HongK” value [4] was less than 0.0001 ng/mL. For the same compound, the “ID50 B/Harbin/7/95” value [9] was 0.0001, 0.0001 μg/ml.

In the case of `CC(=O)N[C@H]1[C@H]([C@H](OC(=O)NCCCCCCNC(=O)CN(CCN(CC(=O)NCCCCCCNC(=O)O[C@H](C(O)CO)[C@@H]2OC(C(=O)O)=C[C@H](NC(=N)N)[C@H]2NC(C)=O)CC(=O)NCCCCCCNC(=O)O[C@H](C(O)CO)[C@@H]2OC(C(=O)O)=C[C@H](NC(=N)N)[C@H]2NC(C)=O)CC(=O)NCCCCCCNC(=O)O[C@H](C(O)CO)[C@@H]2OC(C(=O)O)=C[C@H](NC(=N)N)[C@H]2NC(C)=O)[C@H](O)CO)OC(C(=O)O)=C[C@@H]1NC(=N)N` (stereo partly drawn) [PCT AU01/01128 compound 3], the “Mean (PCT AU01/01128 compound 3)” value [7, 12] is reported as 1478 ng/g and 1368 ng/g and 1413 ng/g, the “PCT AU01/01128 compound 3 ng/g” value [7, 12] is reported as 1098 ng/g and 1352 ng/g and 681 ng/g and 784 ng/g and 2046 ng/g and 1605 ng/g and 698 ng/g and 1901 ng/g and 1507 ng/g and 655 ng/g and 1840 ng/g and 1744 ng/g and the “PCT AU01/01128 compound 3 ng/g” value ([7]; rat lung, co-dosed internal standard, 168 hrs) is reported as 580 ng/g and 829 ng/g and 636 ng/g and 524 ng/g and 367 ng/g and 632 ng/g and 242 ng/g (2×) and 216 ng/g and 815 ng/g and 925 ng/g and 512 ng/g. It also gave a concentration at 48 h ([7]; rat, in vivo, rat lung, co-dosed internal standard, 48 hrs, read-out: Mean (PCT AU01/01128 compound 3)) of 1040 ng/g.

For `CC(=O)N[C@H]1[C@H]([C@H](OC(=O)NCCCCCCCCCCCNC(=O)O[C@@H]([C@@H]2OC(C(=O)O)=C[C@H](NC(=N)N)[C@H]2NC(C)=O)[C@H](O)CO)[C@H](O)CO)OC(C(=O)O)=C[C@@H]1NC(=N)N.O=C(O)C(F)(F)F.O=C(O)C(F)(F)F` [Example 2, (2R,3R,4S)-3-(acetylamino)-2-{(1R,19R,20R)-19-((2R,3R,4S)-3-(acetylamino)-4-{[amino(imino)methyl]amino}-6-carboxy-3,4-dihydro-2H-pyran-2-yl)-1-[(1R)-1,2-dihydroxyethyl]-20,21-dihydroxy-3,17-dioxo-2,18-dioxa-4,16-diazahenicos-1-yl}-4-{[amino(imino)methyl]amino}-3,4-dihydro-2H-pyran-6-carboxylic acid bis(trifluoroacetic acid salt)], the “ID50 A/Sydney/5/97” value ([6]; up to 72 hours, MTT) was 0.0001 µg/mL, the “EC50 PRA B/Vic” value [8] was 0.04 ng/mL and the “EC50 PRA A/Syd” value [10] was less than 0.0001 ng/mL. The “ID50 B/Harbin/7/95” value [9] was 0.0001 µg/mL and the “EC50 PRA B/Yam” value ([5]; plaque reduction, B/Yamanashi/166/98) was less than 0.0001 ng/mL.

For `CC(=O)N[C@H]1[C@H]([C@H](OC(=O)NCCCCCCCCCCCCCNC(=O)O[C@@H]([C@@H]2OC(C(=O)O)=C[C@H](NC(=N)N)[C@H]2NC(C)=O)[C@H](O)CO)[C@H](O)CO)OC(C(=O)O)=C[C@@H]1NC(=N)N` [Example 4, (2R,3R,4S)-3-(acetylamino)-2-{(1R,21R,22R)-21-((2R,3R,4S)-3-(acetylamino)-4-{[amino(imino)methyl]amino}-6-carboxy-3,4-dihydro-2H-pyran-2-yl)-1-[(1R)-1,2-dihydroxyethyl]-22,23-dihydroxy-3,19-dioxo-2,20-dioxa-4,18-diazatricos-1-yl}-4-{[amino(imino)methyl]amino}-3,4-dihydro-2H-pyran-6-carboxylic acid bis(trifluoroacetic acid salt)], the EC50 [11] was less than 0.0001 ng/mL, the “ID50 A/Sydney/5/97” value ([6]; up to 72 hours, MTT) was 0.0001 µg/mL and the EC50 [1, 13] was 0.043 ng/mL. The “Ratio Mean (lung) (cmpd)/PCT AU01/01128 compound 3” value ([7]; rat, in vivo, 0.1 mg/kg, 48 h) was 1.70, the “Ratio Mean (lung) (cmpd)/PCT AU01/01128 compound 3” value ([7]; rat, in vivo, 0.1 mg/kg, 168 h) was 1.48 and the concentration at 48 h [7, 14] was 1770 ng/g. It also gave a concentration at 168 h [7, 14] of 756 ng/g, an EC50 ([2]; H3N2, MDCK, read-out: EC50 PRA A/Pan, plaque reduction, A/Panama/2007/99 (H3N2)) of less than 1e-05 ng/mL and an EC50 ([10]; Influenza A virus, MDCK, read-out: EC50 PRA A/Syd) of less than 0.0001 ng/mL. The EC50 [4] was 0.06 ng/mL, the “ID50 B/Harbin/7/95” value [9] was 0.0001 µg/mL and the EC50 [5, 15] was less than 0.0001 ng/mL.

For `CC(=O)N[C@H]1[C@H]([C@H](OC(=O)NCCCCCCCCCCNC(=O)O[C@@H]([C@@H]2OC(C(=O)O)=C[C@H](NC(=N)N)[C@H]2NC(C)=O)[C@H](O)CO)[C@H](O)CO)OC(C(=O)O)=C[C@@H]1NC(=N)N.O=C(O)C(F)(F)F.O=C(O)C(F)(F)F` [Example 1, (2R,3R,4S)-3-(acetylamino)-2-{(1R,18R,19R)-18-((2R,3R,4S)-3-(acetylamino)-4-{[amino(imino)methyl]amino}-6-carboxy-3,4-dihydro-2H-pyran-2-yl)-1-[(1R)-1,2-dihydroxyethyl]-19,20-dihydroxy-3,16-dioxo-2,17-dioxa-4,15-diazaicos-1-yl}-4-{[amino(imino)methyl]amino}-3,4-dihydro-2H-pyran-6-carboxylic acid bis(trifluoroacetic acid salt)], the “ID50 A/Sydney/5/97” value ([6]; up to 72 hours, MTT) was 0.0002 µg/mL and the “ID50 B/Harbin/7/95” value [9] was 0.0001 µg/mL.

Work on `NC12CC3CC(CC(C3)C1)C2` [Amantadine, reference compound] yielded an EC50 [1, 13] of 11 ng/mL (≈ 0.0727 µM), an EC50 ([3]; H3N2, MDCK, read-out: EC50 PRA A/Vic, plaque reduction, A/Victoria/3/75 (H3N2)) of 0.22 µg/mL (≈ 1.45 µM) and an EC50 [4] greater than 10000 ng/mL. For the same compound, the EC50 [5, 15] was 2060 ng/mL (≈ 13.6 µM).
